# Test results: PMC4858212, “Production of the Ramoplanin Activity Analogue by Double Gene Inactivation” (PLoS ONE, 2016)
# Read-outs that look alike come from different tables or passages of the source. Numbered stars: 1 amine (or outer) side, 2 acyl side, 3 side chain; on linkers, the order of the positions; unused ones are H or OH. Bridge positions count the residues as written; N and C are the ends. Square brackets hold non-standard residues; d marks the D form. Peptide text beside a SMILES is read from it. * marks the point of attachment. Hpg(αMan(1-2)αMan) = N[C@H](C(=O)O)c1ccc(O[C@H]2O[C@H](CO)[C@@H](O)[C@H](O)[C@@H]2O[C@H]2O[C@H](CO)[C@@H](O)[C@H](O)[C@@H]2O)cc1; Octa(2Z,4E)dienoyl(7-Me) = CC(C)C/C=C/C=C\C(=O)*; X1 = NC(=O)[C@@H](O[*:3])[C@H](N[*:1])C(=O)[*:2]; Hpg(3-Cl) = N[C@H](C(=O)O)c1ccc(O)c(Cl)c1; d(aThr) = C[C@@H](O)[C@@H](N)C(=O)O; dHpg = N[C@@H](C(=O)O)c1ccc(O)cc1; Hpg = N[C@H](C(=O)O)c1ccc(O)cc1; aThr = C[C@H](O)[C@H](N)C(=O)O; dOrn = NCCC[C@@H](N)C(=O)O
# Experiments:
# [1] = tested on: Enterococcus faecalis ATCC29212
# Procedure: (§1) The activies of ramoplanin and its analogs against MRSA and VRE were determined using a liquid microdilution method. MIC values were detected according to the CLSI guidelines. ATCC 25923 (methicillin-sensitive Staphylococcus aureus, MSSA), ATCC 43300 (methicillin-resistant Staphylococcus aureus, MRSA), ATCC 29212 (Enterococcus faecalis) and ATCC 51299 (vancomycin-resistant Enterococcus faecalis, VRE) were employed in this study. Ramoplanin and its analogs were dissolved in 30% methyl alcohol, which was also used as the negative control during the serial tests.
# (§2) Antibacterial activities of purified deschlororamoplanin A2 aglycone were compared with ramoplanin A2 and ramoplanin A2 aglycone. The MICs of ramoplanin A2, ramoplanin A2 aglycone and deschlororamoplanin A2 aglycone against ATCC 25923 (methicillin-sensitive Staphylococcus aureus, MSSA), ATCC 43300 (methicillin-resistant Staphylococcus aureus, MRSA), ATCC 29212 (Enterococcus faecalis) and ATCC 51299 (vancomycin-resistant Enterococcus faecalis, VRE) were determined.
# [2] = tested on: Enterococcus faecalis ATCC51299
# Procedure: as §1, §2
# [3] = tested on: Staphylococcus aureus ATCC25923
# Procedure: as §1, §2
# [4] = tested on: Staphylococcus aureus ATCC43300
# Procedure: as §1, §2
Compound,MIC ([1]; ATCC29212),MIC ([2]; ATCC51299),MIC ([3]; ATCC25923),MIC ([4]; ATCC43300),"MIC ([1]; Enterococcus faecalis ATCC29212, liquid microdilution, CLSI guidelines, compounds dissolved in 30% methyl alcohol)","MIC ([2]; Enterococcus faecalis ATCC51299 (vancomycin-resistant, VRE), liquid microdilution, CLSI guidelines, compounds dissolved in 30% methyl alcohol)","MIC ([3]; Staphylococcus aureus ATCC25923 (methicillin-sensitive, MSSA), liquid microdilution, CLSI guidelines, compounds dissolved in 30% methyl alcohol)","MIC ([4]; Staphylococcus aureus ATCC43300 (methicillin-resistant, MRSA), liquid microdilution, CLSI guidelines, compounds dissolved in 30% methyl alcohol)"
"CC(C)C/C=C/C=C\C(=O)N[C@@H](CC(N)=O)C(=O)N[C@@H]1C(=O)N[C@H](c2ccc(O)cc2)C(=O)N[C@H](CCCN)C(=O)N[C@H]([C@@H](C)O)C(=O)N[C@@H](c2ccc(O)cc2)C(=O)N[C@H](c2ccc(O)cc2)C(=O)N[C@@H]([C@H](C)O)C(=O)N[C@@H](Cc2ccccc2)C(=O)N[C@H](CCCN)C(=O)N[C@@H](c2ccc(O)cc2)C(=O)N[C@H]([C@@H](C)O)C(=O)N[C@@H](c2ccc(O)cc2)C(=O)NCC(=O)N[C@@H](CC(C)C)C(=O)N[C@H](C)C(=O)N[C@@H](c2ccc(O)cc2)C(=O)O[C@@H]1C(N)=O [Deschlororamoplanin A2 aglycone] ({Octa(2Z,4E)dienoyl(7-Me)}-N[X1][dHpg][dOrn][d(aThr)][Hpg][dHpg][aThr]F[dOrn][Hpg][d(aThr)][Hpg]GL[dA][Hpg]; ester 2-C)",1 µg/mL,1 µg/mL,2 µg/mL,4 µg/mL,–,–,–,–
"CC(C)C/C=C/C=C\C(=O)N[C@@H](CC(N)=O)C(=O)N[C@@H]1C(=O)N[C@H](c2ccc(O)cc2)C(=O)N[C@H](CCCN)C(=O)N[C@H]([C@@H](C)O)C(=O)N[C@@H](c2ccc(O)cc2)C(=O)N[C@H](c2ccc(O)cc2)C(=O)N[C@@H]([C@H](C)O)C(=O)N[C@@H](Cc2ccccc2)C(=O)N[C@H](CCCN)C(=O)N[C@@H](c2ccc(O[C@H]3O[C@H](CO)[C@@H](O)[C@H](O)[C@@H]3O[C@H]3O[C@H](CO)[C@@H](O)[C@H](O)[C@@H]3O)cc2)C(=O)N[C@H]([C@@H](C)O)C(=O)N[C@@H](c2ccc(O)cc2)C(=O)NCC(=O)N[C@@H](CC(C)C)C(=O)N[C@H](C)C(=O)N[C@@H](c2ccc(O)cc2)C(=O)O[C@@H]1C(N)=O [Deschlororamoplanin A2] ({Octa(2Z,4E)dienoyl(7-Me)}-N[X1][dHpg][dOrn][d(aThr)][Hpg][dHpg][aThr]F[dOrn][Hpg(αMan(1-2)αMan)][d(aThr)][Hpg]GL[dA][Hpg]; ester 2-C)",1 µg/mL,1 µg/mL,2 µg/mL,2 µg/mL,–,–,–,–
"CC(C)C/C=C/C=C\C(=O)N[C@@H](CC(N)=O)C(=O)N[C@@H]1C(=O)N[C@H](c2ccc(O)cc2)C(=O)N[C@H](CCCN)C(=O)N[C@H]([C@@H](C)O)C(=O)N[C@@H](c2ccc(O)cc2)C(=O)N[C@H](c2ccc(O)cc2)C(=O)N[C@@H]([C@H](C)O)C(=O)N[C@@H](Cc2ccccc2)C(=O)N[C@H](CCCN)C(=O)N[C@@H](c2ccc(O)cc2)C(=O)N[C@H]([C@@H](C)O)C(=O)N[C@@H](c2ccc(O)cc2)C(=O)NCC(=O)N[C@@H](CC(C)C)C(=O)N[C@H](C)C(=O)N[C@@H](c2ccc(O)c(Cl)c2)C(=O)O[C@@H]1C(N)=O [Ramoplanin A2 aglycone] ({Octa(2Z,4E)dienoyl(7-Me)}-N[X1][dHpg][dOrn][d(aThr)][Hpg][dHpg][aThr]F[dOrn][Hpg][d(aThr)][Hpg]GL[dA][Hpg(3-Cl)]; ester 2-C)",0.5 µg/mL,1 µg/mL,2 µg/mL,2 µg/mL,–,–,–,–
"CC(C)C/C=C/C=C\C(=O)N[C@@H](CC(N)=O)C(=O)N[C@@H]1C(=O)N[C@H](c2ccc(O)cc2)C(=O)N[C@H](CCCN)C(=O)N[C@H]([C@@H](C)O)C(=O)N[C@@H](c2ccc(O)cc2)C(=O)N[C@H](c2ccc(O)cc2)C(=O)N[C@@H]([C@H](C)O)C(=O)N[C@@H](Cc2ccccc2)C(=O)N[C@H](CCCN)C(=O)N[C@@H](c2ccc(O[C@H]3O[C@H](CO)[C@@H](O)[C@H](O)[C@@H]3O[C@H]3O[C@H](CO)[C@@H](O)[C@H](O)[C@@H]3O)cc2)C(=O)N[C@H]([C@@H](C)O)C(=O)N[C@@H](c2ccc(O)cc2)C(=O)NCC(=O)N[C@@H](CC(C)C)C(=O)N[C@H](C)C(=O)N[C@@H](c2ccc(O)c(Cl)c2)C(=O)O[C@@H]1C(N)=O [Ramoplanin A2] ({Octa(2Z,4E)dienoyl(7-Me)}-N[X1][dHpg][dOrn][d(aThr)][Hpg][dHpg][aThr]F[dOrn][Hpg(αMan(1-2)αMan)][d(aThr)][Hpg]GL[dA][Hpg(3-Cl)]; ester 2-C)",1 µg/mL,1 µg/mL,2 µg/mL,4 µg/mL,–,–,–,–
Enduracidin,–,–,–,–,8 µg/mL,8 µg/mL,8 µg/mL,8 µg/mL
